The results in this text go back to patent publication US10478425B2, “5-phenylazaindole derivative having AMPK-activating activity” (Shionogi & Co., Ltd., priority 2016, dated 2019).

Where two headings read alike, the source gives them in different places.

In the assay the target is T1, Human AMPK α2β2γ1 (Homo sapiens, UniProt O43741+P54646).
T1 construct: The full length cDNAs of human AMPK β2 (NM_005399.3) and human AMPK α2 (NM_006252.3); The full length cDNAs of human AMPK β2 (NM_005399.3); the full length cDNA of human AMPK γ1 (NM_002733.3) had been inserted into pET28b(+); 6×His (N); made in house; host or cells: Escherichia coli BL21 CodonPlus (DE3)-RIL
Kind of assay: Test Example 2: activation of phosphorylated human AMPK α2β2γ1 (mobility-shift kinase assay, FL-Peptide 7). The format is biochemical. The conditions noted are these: for EC150: compound concentration showing 150% relative to the control (100%), human AMPK α2β2γ1 phosphorylated with CaMKK2; for Emax: maximum rate of increase in activity within the measurement range, control = 100%. Here is the method: The full length cDNAs of human AMPK β2 (NM_005399.3) and human AMPK α2 (NM_006252.3) were inserted into the MCS1 and MCS2 of the pETDuet-1 vector to prepare a human AMPK β2 and human AMPK α2 (6×His tag at the 5′ terminus) expressing plasmid. The plasmid was cotransfected with an expression plasmid, in which the full length cDNA of human AMPK γ1 (NM_002733.3) had been inserted into pET28b(+), into BL21 CodonPlus (DE3)-RIL to obtain an expression strain. The expression strain was cultured in TB medium, followed by induction with 0.5 mM IPTG, and cultured at 25° C. for 3 hours and then harvested. After ultrasonication, supernatant was collected and applied to Histrap FF column (GE) and RESOUECE Q column (GE) to prepare 12.5 mg of purified sample containing three types of subunit from 1.8 L of broth.
An expression vector, in which the full length cDNA of human CAMKK β (NM_172226.1) had been inserted into pGEX-6P-3, was transfected into BL21 Star (DE3). The expression strain was cultured in TB medium, followed by induction with 0.5 mM IPTG, and cultured at 25° C. for 3 hours and then harvested. After ultrasonication, supernatant was collected and applied to GSTrap FF column (GE) to prepare 14 mg of GST-fused CAMKK β from 720 ml of broth.
Thus, phosphorylation treatment was carried out as pretreatment.
Human AMPK α2β2γ1 in an amount to give a conversion rate of approximately 10% by reaction for 2 hours, and CaMKK2 in an amount capable of sufficiently imparting activity to AMPK for one hour were mixed in a buffer solution consisting of a 50 mM HEPES-NaOH buffer solution (pH 7.0), 100 mM NaCl, 5 mM magnesium chloride, 0.1% bovine serum albumin, 0.2 mM sodium orthovanadate(V), 1 mM ethylene glycol-bis(2-aminoethyl ether)-N,N,N′,N′-tetraacetic acid (EGTA), 5 mM disodium β-glycerophosphate, 1 mM dithiothreitol and 0.2 mM ATP, and the resulting liquid was left to stand at 25° C. for 1 to 1.5 hours to sufficiently phosphorylate AMPK.
After that, to the enzyme liquid, which had been subjected to phosphorylation treatment, a compound dissolved in DMSO was added so as to have a 1% DMSO concentration. The resulting liquid was left to stand for 10 minutes.
To the liquid, a substrate solution consisting of a 50 mM HEPES-NaOH buffer solution (pH 7.0), 100 mM NaCl, 10 mM magnesium chloride, 0.1% bovine serum albumin, 0.2 mM sodium orthovanadate(V), 1 mM ethylene glycol-bis(2-aminoethyl ether)-N,N,N′,N′-tetraacetic acid (EGTA), 5 mM disodium β-glycerophosphate, 2 mM dithiothreitol, 0.4 mM ATP and 3 μM FL-Peptide 7 (manufactured by Caliper Life Sciences, Inc.) was added in equal amount (10 μl in total). The resulting liquid was allowed to react at 25° C. for 2 hours, then 10 μl of 20 mM EDTA was added thereto to stop the reaction.
To detect phosphorylated fluorescent substrates, the reaction mixture was applied to a measuring device, LabChip EZ Reader II manufactured by Caliper Life Science, Inc., for detecting fluorescence by using differences in mobility due to differences in charge. The setting conditions for the device were pressure, −1.5 PSI; upstream voltage, −2250 V; downstream voltage, −400 V; post sample buffer sip time, 40 seconds; final delay, 120 seconds; and peak order, Product First.
A conversion rate was calculated from the peak heights of the obtained substrate and product. The conversion rate when not containing a compound was used as a control, and a concentration dependent curve was made by plotting the rate of increase in activity to the control at each concentration of a compound.

T1 sequence (P54646 whole entry): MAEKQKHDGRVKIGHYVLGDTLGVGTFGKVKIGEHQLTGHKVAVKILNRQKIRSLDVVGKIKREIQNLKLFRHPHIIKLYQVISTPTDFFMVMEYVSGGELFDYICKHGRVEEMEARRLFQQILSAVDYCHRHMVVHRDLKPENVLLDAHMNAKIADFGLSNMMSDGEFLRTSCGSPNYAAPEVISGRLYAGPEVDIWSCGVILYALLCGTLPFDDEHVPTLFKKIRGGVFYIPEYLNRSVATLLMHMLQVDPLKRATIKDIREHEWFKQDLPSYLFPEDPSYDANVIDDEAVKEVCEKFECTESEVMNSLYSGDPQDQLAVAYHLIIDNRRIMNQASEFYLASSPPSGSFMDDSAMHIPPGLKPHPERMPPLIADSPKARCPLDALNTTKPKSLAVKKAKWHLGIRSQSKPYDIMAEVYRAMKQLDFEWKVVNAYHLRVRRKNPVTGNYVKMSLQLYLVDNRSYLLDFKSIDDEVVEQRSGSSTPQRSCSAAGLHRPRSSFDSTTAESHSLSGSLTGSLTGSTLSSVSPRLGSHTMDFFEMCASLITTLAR
T1 sequence (O43741 whole entry): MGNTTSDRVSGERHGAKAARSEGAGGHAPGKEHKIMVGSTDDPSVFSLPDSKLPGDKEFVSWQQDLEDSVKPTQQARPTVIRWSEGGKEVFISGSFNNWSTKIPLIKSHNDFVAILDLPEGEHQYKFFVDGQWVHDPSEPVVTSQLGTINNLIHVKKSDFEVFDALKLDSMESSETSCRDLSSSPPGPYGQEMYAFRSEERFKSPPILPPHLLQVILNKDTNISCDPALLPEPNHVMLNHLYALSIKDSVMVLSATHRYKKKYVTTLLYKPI
T1 sequence (P54619 whole entry partner): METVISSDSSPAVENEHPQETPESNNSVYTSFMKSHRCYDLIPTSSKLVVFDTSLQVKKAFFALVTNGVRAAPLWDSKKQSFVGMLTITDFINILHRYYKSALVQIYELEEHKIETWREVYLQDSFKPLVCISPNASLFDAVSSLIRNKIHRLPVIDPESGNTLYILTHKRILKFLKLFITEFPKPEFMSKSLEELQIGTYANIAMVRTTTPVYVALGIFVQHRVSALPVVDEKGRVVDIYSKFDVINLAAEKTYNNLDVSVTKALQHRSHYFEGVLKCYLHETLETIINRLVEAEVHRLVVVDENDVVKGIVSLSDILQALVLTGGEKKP

By Emax is commonly meant the maximal effect, on the per cent scale that the assay sets. As for `CS(C)(=O)=Nc1ccc(-c2ccc(-c3nc4cc(O[C@@H]5CO[C@H](CO)[C@H]5O)[nH]c4cc3F)cc2)cc1` [Compound I-2-23], the EC150 is listed as 28 nM. Where the note is “read-out: Emax”, the Emax worked out at 224%.
The like results for `CS(=O)(=O)c1ccc(-c2ccc(-c3nc4cc(O[C@@H]5CO[C@H](CO)C5)[nH]c4cc3F)cc2)nc1` [Compound I-2-94] were, in that order, 0.99 nM and 652%.
For the molecule `COCC(=O)Nc1ccc(-c2ccc(-c3nc4cc(O[C@@H]5CO[C@H]6[C@@H]5OC[C@H]6O)[nH]c4cc3F)cc2)cc1` [Compound I-2-10], the EC150 turned out to be 2.9 nM. Under “read-out: Emax”, the Emax is 636%.
For `COCC(=O)Nc1ccc(-c2ccc(-c3nc4cc(O[C@@H]5CO[C@H](CO)C5)[nH]c4cc3F)cc2)cc1` [Compound I-2-74] the same measures were 1.2 nM and 656%.
For `CONC(=O)c1ccc(-c2ccc(-c3nc4cc(O[C@@H]5CO[C@H](CO)C5)[nH]c4cc3F)cc2)cc1` [Compound I-2-86] the same measures were 0.53 nM and 592%.
For `COCCOc1ccc(-c2ccc(-c3nc4cc(O[C@@H]5CO[C@H]6[C@@H]5OC[C@H]6O)[nH]c4cc3F)cc2)cn1` [Compound I-2-40] the same measures were 16 nM and 384%.
With `C[S+]([O-])c1ccc(-c2ccc(-c3nc4cc(O[C@@H]5CO[C@H](CO)C5)[nH]c4cc3F)cc2)cc1` (single isomer, unassigned) [Compound I-2-06], the EC150 worked out at 0.46 nM. Besides, under “read-out: Emax”, the Emax was 621%.
For `CNC(=O)CCOc1ccc(-c2ccc(-c3nc4cc(O[C@@H]5CO[C@H]6[C@@H]5OC[C@H]6O)[nH]c4cc3F)cc2)cc1` [Compound I-2-54] the same measures were 1.7 nM and 633%.
For `CP(C)(=O)c1ccc(-c2ccc(-c3nc4cc(O[C@@H]5CO[C@H]6[C@@H]5OC[C@H]6O)[nH]c4cc3F)cc2)cc1` [Compound I-2-56] the same measures were 1.6 nM and 618%.
In the case of `COCCOC1CCN(c2ccc(-c3nc4cc(O[C@@H]5CO[C@H]6[C@@H]5OC[C@H]6O)[nH]c4cc3F)cc2)C1` (stereo partly shown) [Compound I-1-62], the EC150 is reported as 21 nM. Also, the Emax (read-out: Emax) was 392%.
For `CS(C)(=O)=Nc1ccc(-c2ccc(-c3nc4cc(O[C@@H]5CO[C@H](CO)[C@@H]5O)[nH]c4cc3F)cc2)cc1` [Compound I-2-19] the same measures were 67 nM and 192%.
For `CN(C)S(=O)(=O)c1ccc(-c2ccc(-c3nc4cc(O[C@@H]5CO[C@H]6[C@@H]5OC[C@H]6O)[nH]c4cc3F)cc2)nc1` [Compound I-1-33] the same measures were 6.5 nM and 464%.
Take `OC[C@@H]1C[C@H](Oc2cc3nc(-c4ccc(C5(CO)CC5)cc4)c(F)cc3[nH]2)CO1` [Compound I-2-80]: the EC150 was determined as 2 nM. For the same molecule, the Emax (read-out: Emax) is 558%.
With `O[C@@H]1CO[C@H]2[C@@H]1OC[C@H]2Oc1cc2nc(-c3ccc(-c4ccc(OC5CCOC5)cc4)cc3)c(F)cc2[nH]1` (stereo partly shown) [Compound I-2-69], the EC150 is 13 nM. The Emax (read-out: Emax) was found to be 557%.
On to `CS(=O)(=O)N[C@H]1CC[C@H](c2ccc(-c3nc4cc(O[C@@H]5CO[C@H]6[C@@H]5OC[C@H]6O)[nH]c4cc3F)cc2)CC1` [Compound I-1-45], for which the EC150 came out at 19 nM. Also, the maximal effect (Emax) (read-out: Emax) came to 482%.
As to `C[S+]([O-])c1ccc(-c2ccc(-c3nc4cc(O[C@@H]5CO[C@H]6[C@@H]5OC[C@H]6O)[nH]c4cc3F)cc2)cc1` (single isomer, unassigned) [Compound I-2-09], the EC150 came to 1.9 nM and the Emax came to 598%.
In the case of `CNC(=O)c1ccc(-c2ccc(-c3nc4cc(O[C@@H]5CO[C@H]6[C@@H]5OC[C@H]6O)[nH]c4cc3F)cc2)cc1` [Compound I-1-55], the EC150 came out at 0.34 nM. The maximal effect (Emax) (read-out: Emax) came to 431%.
